Data from PubChem BioAssay (NCI).
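The compound was tested at five concentrations on cells cultured in 96-well plates, with a 48-hour exposure period. TGI denotes the concentration required for complete inhibition of growth.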

Experiments:
Assay in all cases: inhibition of tumour cell growth, NCI panel, 48 h
DLD-1 colon = tested on: DLD-1 colon
DMS 114 small cell lung = tested on: DMS 114 small cell lung
DMS 273 small cell lung = tested on: DMS 273 small cell lung
HOP-18 NSCLC = tested on: HOP-18 NSCLC
HT29 colon = tested on: HT29 colon
IGROV1 ovarian = tested on: IGROV1 ovarian
KM20L2 colon = tested on: KM20L2 colon
LXFL 529 NSCLC = tested on: LXFL 529 NSCLC
M19-MEL melanoma = tested on: M19-MEL melanoma
NCI-H522 lung = tested on: NCI-H522 lung
OVCAR-3 ovarian = tested on: OVCAR-3 ovarian
OVCAR-8 ovarian = tested on: OVCAR-8 ovarian
SNB-19 CNS = tested on: SNB-19 CNS
SNB-78 CNS = tested on: SNB-78 CNS
RXF-631 renal = tested on: RXF-631 renal
XF 498 CNS = tested on: XF 498 CNS

SMILES	TGI (DLD-1 colon) [µM]	TGI (DMS 114 small cell lung) [µM]	TGI (DMS 273 small cell lung) [µM]	TGI (HOP-18 NSCLC) [µM]	TGI (HT29 colon) [µM]	TGI (IGROV1 ovarian) [µM]	TGI (KM20L2 colon) [µM]	TGI (LXFL 529 NSCLC) [µM]	TGI (M19-MEL melanoma) [µM]	TGI (NCI-H522 lung) [µM]	TGI (OVCAR-3 ovarian) [µM]	TGI (OVCAR-8 ovarian) [µM]	TGI (SNB-19 CNS) [µM]	TGI (SNB-78 CNS) [µM]	TGI (RXF-631 renal) [µM]	TGI (XF 498 CNS) [µM]
[N-]=[N+]=NC(CBr)c1cn([C@H]2C[C@H](O)[C@@H](CO)O2)c(=O)[nH]c1=O (stereo partly drawn)	> 100	> 100	> 100	> 100	> 100	> 100	> 100	> 100	> 100	> 100	> 100	> 100	> 100	> 100	–	–
COCCOCC(=O)N(CCn1ccc(NC(c2ccccc2)(c2ccccc2)c2ccccc2)nc1=O)CCn1cnc2nc(N)[nH]c(=O)c21	> 100	> 100	> 100	> 100	> 100	> 100	> 100	> 100	–	–	> 100	> 100	–	> 100	> 100	–
COC(=O)[C@@]12OC[C@]34C([C@@H](O)C1O)[C@@]1(C)CC(=O)C(OC(=O)/C=C(/c5ccccc5)C(F)(F)F)=C(C)C1C[C@H]3OC(=O)[C@H](O)[C@H]42 (stereo partly drawn)	31.9	22.3	18	> 50	46.3	21.2	36.6	> 50	> 50	24.5	–	> 50	23.2	> 50	–	33
CC(=O)Nc1ccc(C(=O)NN2C(=O)C(Cl)C2c2ccccc2O)cc1 (stereo not drawn)	> 100	–	> 100	–	> 100	> 100	> 100	> 100	–	> 100	90.3	> 100	> 100	–	–	> 100
CN(C)c1ccc(/C=N\N2C(=O)c3ccccc3C2=O)cc1	> 100	> 100	> 100	> 100	> 100	> 100	> 100	> 100	> 100	–	> 100	> 100	> 100	> 100	–	> 100
Cn1ncnc1CCc1ccccc1	–	> 100	> 100	> 100	> 100	> 100	> 100	> 100	> 100	> 100	> 100	> 100	–	> 100	–	–
COc1ccc(CNc2nc3c(NC(C)=O)cc(C(F)(F)F)cc3nc2-c2ccccc2)cc1OC	> 100	> 100	> 100	–	> 100	> 100	> 100	> 100	> 100	23.5	> 100	> 100	> 100	> 100	–	> 100
Cc1nc(Nc2ccc([N+](=O)[O-])cc2)sc1C(/C=C/c1ccc(N(C)C)cc1)=N/NC(=O)c1ccccc1	> 100	> 100	–	> 100	> 100	> 100	> 100	> 100	> 100	> 100	> 100	> 100	> 100	> 100	> 100	> 100
O=c1cc(-c2ccc(Cl)cc2)oc2cc(OCCCOc3ccc4c(=O)cc(-c5ccc(Cl)cc5)oc4c3)ccc12	> 100	> 100	> 100	> 100	> 100	> 100	> 100	> 100	> 100	> 100	> 100	> 100	> 100	> 100	> 100	> 100
C=CCN(C)CN(C)c1nc(N(C)C)nc(N(C)C)n1	> 100	42.7	> 100	> 100	> 100	> 100	> 100	89	> 100	51.5	> 100	> 100	> 100	> 100	–	–
Cc1ccc(O)c(C(=O)CCCC(=O)c2cc(C)ccc2O)c1	> 100	> 100	> 100	> 100	> 100	> 100	> 100	> 100	> 100	> 100	–	> 100	> 100	> 100	–	> 100
O=C(O)Cn1c(=O)[nH]c(=O)c2c1ncn2Cc1ccccc1	> 100	> 100	> 100	–	> 100	–	> 100	> 100	> 100	> 100	> 100	> 100	> 100	> 100	> 100	> 100
COc1cc2c(cc1OC)C(=O)C(C1=C(SC(=N)N)C(=O)c3cc(OC)c(OC)cc31)C2 (stereo not drawn)	> 100	> 100	> 100	–	> 100	> 100	> 100	> 100	> 100	> 100	> 100	> 100	> 100	> 100	–	> 100
